Key:
[1] = molecular target: T1, ATR/ATRIP (Homo sapiens, UniProt Q13535); test: ATR/ATRIP kinase assay (TR-FRET, p53 phosphorylation); format: biochemical; details: Table 1, class symbols; read-out: ATR-ATRIP IC50
T1 construct: human ATR, full length, GenBank ID: NM_001184.3; p53: Sf21 insect cells

[2] = tested on: phosphorylation of Chk1 (Ser 345) in HT29 colon adenocarcinoma cells; test: pCHK1 cellular assay; format: cell-based; details: Homo sapiens
From the text: Chk1 kinase acts downstream of ATR and has a key role in DNA damage checkpoint control. Activation of Chk1 involves phosphorylation of Ser317 and Ser345 (regarded as the preferential target for phosphorylation/activation by ATR) and occurs in response to blocked DNA replication and certain forms of genotoxic stress. Phosphorylation at Ser 345 serves to localize Chk1 to the nucleus following checkpoint activation.
This assay measures a decrease in phosphorylation of Chk1 (Ser 345) in HT29 colon adenocarcinoma cells following treatment with compound and hydroxyurea (which promotes fork stalling because of dNTP depletion) and using an immunocytochemical procedure and high content imaging.
For the assay HT29 cells are plated in culture medium (DMEM high Glucose (no phenol red), 2 mM Glutamax, 1 mM Pyruvate, 10% FCS into Greiner 384 well plates, black, μclear #781090 (2500 cells/well/30 μl) and incubated for at least 20 hours at 37° C., 10% CO2 and 90% rH. Diluted test compounds (1 nM-30 μM final) and hydroxyurea (3 mM final) are added simultaneously and cells are incubated for 4 h at 37° C. After fixation/prmeabilisation with 100% MeOH (−20° C. cold) and permeabilisation with 0.2% Triton X-100 a complete immunocytochemical procedure is performed using a specific anti-pChk1 antibody (Cell Signaling, #2348BF) and fluorescently labelled secondary antibody (Alexa Fluor® 488 goat anti-rabbit F(ab′)2 fragment, Invitrogen A11070) and parallel nuclear staining for cell counting.
The nuclear localised pChk1 signal is detected on an ImageXpress Ultra confocal high content reader and reported as % positive cells (nuclei).

[3] = tested on: phosphorylation of H2AX (gH2AX) in U2OS-TopBP1-ER cells; test: gH2AX-TopBP1ER cellular assay; format: cell-based
From the text: gH2AX-TopBP1ER Cellular Assay
ATR activity is restricted to replicating cells and many of its targets can also be phosphorylated by other PIKKs. These restrictions have limited the development of selective cellular assays in the past. In order to overcome these limitations, a previously developed genetically engineered cellular system in which ATR, and only ATR, can be activated at will in every cell (Toledo et al Genes Dev. 22, 297-302 2008) was used. In this system, the addition of 4-hydroxytamoxifen (4-OHT), promotes the nuclear translocation of a fragment of TopBP1 which then activates ATR. The phosphorylation of H2AX that follows 4-OHT addition in these cells is a direct and selective readout of ATR activity, which is not influenced by the rest of PIKKs. This property has been used in a screen for compounds with ATR inhibitory capacity. U2OS-TopBP1-ER cells stably express the TopBP1 activation domain (aa 978-1286) fused to a mutated estrogen receptor ligand binding domain. Nuclear accumulation of the TopBP1-ER-LBD fusion protein is induced by the synthetic ER antagonist 4-hydroxytamoxifen (4-OHT) (and not by natural ER agonists) mediating specific ATR activation that is independent of DNA damage or cell cycle. In the assay phosphorylation of the ATR substrate H2AX (“gH2AX”) at Serin 139 is detected using an immune-cytochemical procedure and high content imaging. For the assay U2OS-TopBP1-ER cells are plated in culture medium (DMEM high Glucose (no phenol red), 2 mM Glutamax, 1 mM Pyruvate, 10% FCS into Greiner 384 well plates, black, μclear #781090 (4000 cells/well/30 μl) and incubated for at least 20 hours at 37° C., 10% CO2 and 90% rH. Diluted test compounds (1 nM-30 μM final) and 4-OHT (1 μM final) are added simultaneously and cells are incubated for 2 h at 37° C. After fixation with 4% formaldehyde and permeabilisation with 0.2% Triton X-100 a complete immunocytochemical procedure is performed using a specific anti-gH2AX-antibody (Millipore 05-636, clone JBW301) and fluorescently labelled secondary antibody (Alexa Fluor® 488 goat anti-mouse F(ab′)2 fragment, Invitrogen A11017) and parallel nuclear staining for cell counting. The nuclear localised gH2AX signal is detected on an ImageXpress Ultra confocal high content reader and reported as % positive cells (nuclei).

[4] = HT-29, Table 1, class symbols, hydroxyurea

T1 sequence (Q13535 whole entry): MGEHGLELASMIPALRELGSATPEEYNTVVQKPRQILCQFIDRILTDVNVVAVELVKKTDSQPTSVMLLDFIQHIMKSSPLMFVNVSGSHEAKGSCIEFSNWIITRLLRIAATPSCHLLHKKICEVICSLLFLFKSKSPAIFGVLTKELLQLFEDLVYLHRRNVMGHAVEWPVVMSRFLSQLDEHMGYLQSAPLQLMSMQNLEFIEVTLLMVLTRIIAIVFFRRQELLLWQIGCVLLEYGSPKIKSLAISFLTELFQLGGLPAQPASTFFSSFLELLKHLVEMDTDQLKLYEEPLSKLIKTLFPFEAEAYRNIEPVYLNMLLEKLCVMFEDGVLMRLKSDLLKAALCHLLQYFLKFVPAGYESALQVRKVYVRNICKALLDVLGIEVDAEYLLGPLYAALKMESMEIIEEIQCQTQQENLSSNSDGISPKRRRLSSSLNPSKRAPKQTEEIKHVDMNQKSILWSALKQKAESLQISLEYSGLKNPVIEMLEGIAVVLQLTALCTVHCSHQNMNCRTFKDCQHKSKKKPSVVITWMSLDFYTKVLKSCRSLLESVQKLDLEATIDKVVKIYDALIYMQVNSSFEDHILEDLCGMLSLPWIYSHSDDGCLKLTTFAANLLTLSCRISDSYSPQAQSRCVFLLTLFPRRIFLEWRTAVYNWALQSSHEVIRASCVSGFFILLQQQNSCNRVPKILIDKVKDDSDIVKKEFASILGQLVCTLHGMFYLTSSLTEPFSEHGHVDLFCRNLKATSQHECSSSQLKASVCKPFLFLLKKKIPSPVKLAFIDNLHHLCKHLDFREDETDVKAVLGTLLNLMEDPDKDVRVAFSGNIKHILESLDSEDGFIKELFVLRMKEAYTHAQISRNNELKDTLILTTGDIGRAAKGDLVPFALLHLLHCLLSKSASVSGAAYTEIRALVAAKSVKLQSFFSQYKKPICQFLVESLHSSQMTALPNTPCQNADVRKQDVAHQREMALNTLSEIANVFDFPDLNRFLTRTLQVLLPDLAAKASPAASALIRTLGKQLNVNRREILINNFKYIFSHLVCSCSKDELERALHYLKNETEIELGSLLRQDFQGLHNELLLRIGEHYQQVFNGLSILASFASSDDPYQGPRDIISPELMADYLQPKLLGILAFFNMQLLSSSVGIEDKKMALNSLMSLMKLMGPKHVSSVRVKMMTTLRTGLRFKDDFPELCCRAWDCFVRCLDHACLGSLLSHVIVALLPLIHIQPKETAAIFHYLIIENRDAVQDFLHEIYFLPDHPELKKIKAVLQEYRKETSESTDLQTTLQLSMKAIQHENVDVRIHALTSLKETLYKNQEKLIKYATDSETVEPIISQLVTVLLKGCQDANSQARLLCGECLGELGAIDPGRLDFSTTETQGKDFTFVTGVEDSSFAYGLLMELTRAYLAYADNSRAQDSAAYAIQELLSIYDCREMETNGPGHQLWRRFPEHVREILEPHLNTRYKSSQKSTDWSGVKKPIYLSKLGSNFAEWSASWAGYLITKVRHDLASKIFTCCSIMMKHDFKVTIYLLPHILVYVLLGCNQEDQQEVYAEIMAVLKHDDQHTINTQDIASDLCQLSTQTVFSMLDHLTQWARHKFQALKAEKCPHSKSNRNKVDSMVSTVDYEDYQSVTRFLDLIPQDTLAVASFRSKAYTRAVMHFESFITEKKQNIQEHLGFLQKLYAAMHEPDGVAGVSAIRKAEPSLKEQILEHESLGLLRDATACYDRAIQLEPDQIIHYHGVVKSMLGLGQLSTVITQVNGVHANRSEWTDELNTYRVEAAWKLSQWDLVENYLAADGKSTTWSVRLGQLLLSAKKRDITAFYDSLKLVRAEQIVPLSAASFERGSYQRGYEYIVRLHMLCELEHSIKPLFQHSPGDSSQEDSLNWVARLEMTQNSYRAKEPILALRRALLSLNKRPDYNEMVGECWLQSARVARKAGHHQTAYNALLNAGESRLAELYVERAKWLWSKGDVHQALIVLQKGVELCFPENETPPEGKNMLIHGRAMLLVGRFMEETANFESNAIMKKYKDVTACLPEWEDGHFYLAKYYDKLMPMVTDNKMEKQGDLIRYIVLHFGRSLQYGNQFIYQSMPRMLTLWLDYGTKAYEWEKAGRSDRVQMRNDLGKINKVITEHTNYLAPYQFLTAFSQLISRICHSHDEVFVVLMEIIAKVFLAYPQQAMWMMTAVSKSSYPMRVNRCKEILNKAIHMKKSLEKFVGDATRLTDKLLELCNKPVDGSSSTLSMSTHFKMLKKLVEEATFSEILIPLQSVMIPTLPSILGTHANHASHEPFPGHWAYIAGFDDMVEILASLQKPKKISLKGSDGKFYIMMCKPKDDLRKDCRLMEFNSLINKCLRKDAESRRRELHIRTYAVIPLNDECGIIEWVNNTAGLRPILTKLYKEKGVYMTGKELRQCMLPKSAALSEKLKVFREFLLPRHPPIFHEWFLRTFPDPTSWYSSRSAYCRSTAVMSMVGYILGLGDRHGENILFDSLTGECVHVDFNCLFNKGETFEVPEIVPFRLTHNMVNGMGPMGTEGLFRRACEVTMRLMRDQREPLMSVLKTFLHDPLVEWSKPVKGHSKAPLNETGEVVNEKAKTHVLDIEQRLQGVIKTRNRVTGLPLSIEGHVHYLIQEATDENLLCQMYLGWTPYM
T1 sequence (Q8WXE1 whole entry partner): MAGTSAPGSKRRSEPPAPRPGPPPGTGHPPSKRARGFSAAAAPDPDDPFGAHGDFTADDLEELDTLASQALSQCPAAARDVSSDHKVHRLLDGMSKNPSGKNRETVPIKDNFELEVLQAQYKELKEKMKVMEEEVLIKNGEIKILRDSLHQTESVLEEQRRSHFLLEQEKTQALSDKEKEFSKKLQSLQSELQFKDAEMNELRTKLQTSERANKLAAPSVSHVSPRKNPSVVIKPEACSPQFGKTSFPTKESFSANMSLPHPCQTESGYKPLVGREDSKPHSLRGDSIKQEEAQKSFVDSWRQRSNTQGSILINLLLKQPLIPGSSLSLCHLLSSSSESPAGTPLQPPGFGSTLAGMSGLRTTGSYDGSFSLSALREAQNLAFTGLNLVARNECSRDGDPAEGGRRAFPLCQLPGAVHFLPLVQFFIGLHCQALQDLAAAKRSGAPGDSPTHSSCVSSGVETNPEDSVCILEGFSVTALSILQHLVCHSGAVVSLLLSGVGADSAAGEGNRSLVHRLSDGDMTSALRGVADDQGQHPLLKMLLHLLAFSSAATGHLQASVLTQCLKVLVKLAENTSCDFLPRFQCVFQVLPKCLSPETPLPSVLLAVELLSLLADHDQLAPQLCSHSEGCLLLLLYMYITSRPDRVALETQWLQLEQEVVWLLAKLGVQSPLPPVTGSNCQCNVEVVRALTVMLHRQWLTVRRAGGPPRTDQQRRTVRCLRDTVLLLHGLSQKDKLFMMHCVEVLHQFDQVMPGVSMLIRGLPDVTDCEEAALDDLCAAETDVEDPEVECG

For C[C@@H]1COC[C@H]2COc3c(nc(-c4ccnc5[nH]ccc45)nc3C(C)(C)O)N21 [A6, 2-[(5R,8aS)-5-Methyl-3-(1H-pyrrolo[2,3-b]pyridin-4-yl)-5,6,8a,9-tetrahydro-8H-7,10-dioxa-2,4,4b-triaza-phenanthren-1-yl]-propan-2-ol], the IC50 [1] was less than 1 nM, the IC50 [2, 4] was 10 to 100 nM and the IC50 ([3]; Table 1, class symbols, 4-OHT) was 10 to 100 nM.
C[C@@H]1COC[C@H]2COc3c(nc(-c4c(F)cnc5[nH]ccc45)nc3C(C)(C)O)N21 [A7, 2-[(5R,8aS)-3-(5-Fluoro-1H-pyrrolo[2,3-b]pyridin-4-yl)-5-methyl-5,6,8a,9-tetrahydro-8H-7,10-dioxa-2,4,4b-triaza-phenanthren-1-yl]-propan-2-ol] was tested, and the IC50 [1] was 1 to 10 nM, the IC50 [2, 4] was 100 to 1000 nM and the IC50 ([3]; Table 1, class symbols, 4-OHT) was 100 to 1000 nM.
CNc1nc2ccccc2n1-c1nc2c(c(C(C)(C)O)n1)OC[C@@H]1COC[C@@H](C)N21 [A9, 2-[(5R,8aS)-5-Methyl-3-(2-methylamino-benzimidazol-1-yl)-5,6,8a,9-tetrahydro-8H-7,10-dioxa-2,4,4b-triaza-phenanthren-1-yl]-propan-2-ol] was tested, and the IC50 [1] was less than 1 nM, the IC50 [2, 4] was 10 to 100 nM and the IC50 ([3]; Table 1, class symbols, 4-OHT) was 100 to 1000 nM.
Work on CNc1nccn1-c1nc2c(c(C(C)(C)S(C)(=O)=O)n1)OC[C@@H]1COC[C@@H](C)N21 [A10, {1-[(5R,8aS)-1-(1-Methanesulfonyl-1-methyl-ethyl)-5-methyl-5,6,8a,9-tetrahydro-8H-7,10-dioxa-2,4,4b-triaza-phenanthren-3-yl]-1H-imidazol-2-yl}-methyl-amine] yielded an IC50 [1] of 10 to 100 nM, an IC50 [2, 4] of 10 to 100 nM and an IC50 ([3]; Table 1, class symbols, 4-OHT) of 100 to 1000 nM.
Work on C[C@@H]1COC[C@H]2COc3c(nc(-n4c(N)nc5ccccc54)nc3C(C)(C)S(C)(=O)=O)N21 [A11, 1-[(5R,8aS)-1-(1-Methanesulfonyl-1-methyl-ethyl)-5-methyl-5,6,8a,9-tetrahydro-8H-7,10-dioxa-2,4,4b-triaza-phenanthren-3-yl]-1H-benzimidazol-2-ylamine] yielded an IC50 [1] of less than 1 nM, an IC50 [2, 4] of 10 to 100 nM and an IC50 ([3]; Table 1, class symbols, 4-OHT) of 100 to 1000 nM.
With CNc1nc2ccccc2n1-c1nc2c(c(C(C)(C)S(C)(=O)=O)n1)OC[C@@H]1COC[C@@H](C)N21 [A15, {1-[(5R,8aS)-1-(1-Methanesulfonyl-1-methyl-ethyl)-5-methyl-5,6,8a,9-tetrahydro-8H-7,10-dioxa-2,4,4b-triaza-phenanthren-3-yl]-1H-benzimidazol-2-yl}-methyl-amine] the IC50 [1] was less than 1 nM, the IC50 [2, 4] was less than 10 nM and the IC50 ([2]; HT-29, Table 2, hydroxyurea) was 2.9 nM. It also gave an IC50 ([3]; Table 1, class symbols, 4-OHT) of less than 10 nM and an IC50 ([3]; Table 2, 4-OHT) of 7.4 nM.
C[C@@H]1COC[C@H]2COc3c(nc(-c4c(N)cnc5[nH]ccc45)nc3C(C)(C)O)N21 [A21, 2-[(5R,8aS)-3-(5-Amino-1H-pyrrolo[2,3-b]pyridin-4-yl)-5-methyl-5,6,8a,9-tetrahydro-8H-7,10-dioxa-2,4,4b-triaza-phenanthren-1-yl]-propan-2-ol] showed an IC50 [1] of less than 1 nM, an IC50 [2, 4] of 100 to 1000 nM and an IC50 ([3]; Table 1, class symbols, 4-OHT) of 10 to 100 nM.
Work on CNc1cnc2[nH]ccc2c1-c1nc2c(c(C(C)(C)O)n1)OC[C@@H]1COC[C@@H](C)N21 [A23, 2-[(5R,8aS)-5-Methyl-3-(5-methylamino-1H-pyrrolo[2,3-b]pyridin-4-yl)-5,6,8a,9-tetrahydro-8H-7,10-dioxa-2,4,4b-triaza-phenanthren-1-yl]-propan-2-ol] yielded an IC50 [1] of 1 to 10 nM, an IC50 [2, 4] of 10 to 100 nM and an IC50 ([3]; Table 1, class symbols, 4-OHT) of 100 to 1000 nM.
Cc1nc2ccccc2n1-c1nc2c(c(C(C)(C)S(C)(=O)=O)n1)OC[C@@H]1COC[C@@H](C)N21 [A24, (5R,8aS)-1-(1-Methanesulfonyl-1-methyl-ethyl)-5-methyl-3-(2-methylbenzimidazol-1-yl)-5,6,8a,9-tetrahydro-8H-7,10-dioxa-2,4,4b-triaza-phenanthrene] showed an IC50 [1] of less than 1 nM, an IC50 [2, 4] of 10 to 100 nM and an IC50 ([3]; Table 1, class symbols, 4-OHT) of 100 to 1000 nM.
Compound CNc1nc2c(F)cccc2n1-c1nc2c(c(C(C)(C)S(C)(=O)=O)n1)OC[C@@H]1COC[C@@H](C)N21 [A25, {4-Fluoro-1-[(5R,8aS)-1-(1-methanesulfonyl-1-methyl-ethyl)-5-methyl-5,6,8a,9-tetrahydro-8H-7,10-dioxa-2,4,4b-triaza-phenanthren-3-yl]-1H-benzimidazol-2-yl}-methyl-amine] has an IC50 [1] of less than 1 nM, an IC50 [2, 4] of 10 to 100 nM and an IC50 ([3]; Table 1, class symbols, 4-OHT) of 100 to 1000 nM.
With CNc1nc2ccccc2n1-c1nc2c(c(C3(S(C)(=O)=O)CC3)n1)OC[C@@H]1COC[C@@H](C)N21 [A26, {1-[(4bR,8S)-1-(1-Methanesulfonyl-cyclopropyl)-5-methyl-5,6,8a,9-tetrahydro-8H-7,10-dioxa-2,4,4b-triaza-phenanthren-3-yl]-1H-benzimidazol-2-yl}-methylamine] the IC50 [1] was less than 1 nM, the IC50 [2, 4] was 10 to 100 nM and the IC50 ([2]; HT-29, Table 2, hydroxyurea) was 25 nM. The IC50 ([3]; Table 1, class symbols, 4-OHT) was 10 to 100 nM and the IC50 ([3]; Table 2, 4-OHT) was 37 nM.
In the case of CCNc1cnc2[nH]ccc2c1-c1nc2c(c(C(C)(C)S(C)(=O)=O)n1)OC[C@@H]1COC[C@@H](C)N21 [A90, ethyl-{4-[(S)-1-(1-methanesulfonyl-1-methyl-ethyl)-5-(R)-methyl-5,6,8a,9-tetrahydro-8H-7,10-dioxa-2,4,4b-triaza-phenanthren-3-yl]-1H-pyrrolo[2,3-b]pyridin-5-yl}-amine], the IC50 [1] is reported as 1 to 10 nM and the IC50 [2, 4] is reported as 10 to 100 nM.
With C[C@@H]1COC[C@H]2COc3c(nc(-c4c(O)cnc5[nH]ccc45)nc3C3(S(C)(=O)=O)CC3)N21 [A91, 4-[(5R,8aS)-1-(1-methanesulfonyl-cyclopropyl)-5-methyl-5,6,8a,9-tetrahydro-8H-7,10-dioxa-2,4,4b-triaza-phenanthren-3-yl]-1H-pyrrolo[2,3-b]pyridin-5-ol] the IC50 [1] was less than 1 nM and the IC50 [2, 4] was 100 to 1000 nM.
Work on C[C@@H]1COC[C@H]2COc3c(nc(-n4c(NC5COC5)nc5ccccc54)nc3C(C)(C)S(C)(=O)=O)N21 [A93, {1-[(5R,8aS)-1-(1-methanesulfonyl-1-methyl-ethyl)-5-methyl-5,6,8a,9-tetrahydro-8H-7,10-dioxa-2,4,4b-triaza-phenanthren-3-yl]-1H-benzoimidazol-2-yl}-oxetan-3-yl-amine] yielded an IC50 [1] of 1 to 10 nM and an IC50 [2, 4] of 10 to 100 nM.

— patent publication US10570149B2, “Tricyclic heterocylic derivatives” (MERCK PATENT GMBH, priority 2016, dated 2020)
